According to PubChem BioAssay AID1963836 (Molecular Pharmacology Branch, DTP, NCI, 2024):

Tested on: 857933-349-R-J2-PDC complex spheroid viability
Assay: Anticancer human tumor 857933-349-R-J2-PDC patient-derived colon adenocarcinoma cell line growth inhibition [POLQ]
Details: for IC50: curve of first compound; for viability, T/C: stronger effect = lower value; active = viability on the fitted dose curve at most 10% of control; inactive = the rest
In short: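 Growth inhibition in 3D: complex spheroids (tumor PDC, HUVEC, MSC) treated with POLQ inhibitor combinations; where Cmax unknown, highest tested concentration 10 microM, except SN-38 at 1 microM.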

[1] = second compound 0.0316 µM, first compound 0.00316 µM
[2] = second compound 0.0316 µM, first compound 0.01 µM
[3] = second compound 0.0316 µM, first compound 0.0316 µM
[4] = second compound 0.0316 µM, first compound 0.1 µM
[5] = second compound 0.1 µM, first compound 0.00316 µM
[6] = second compound 0.1 µM, first compound 0.01 µM
[7] = second compound 0.1 µM, first compound 0.0316 µM
[8] = second compound 0.1 µM, first compound 0.1 µM
[9] = second compound 0.316 µM, first compound 0.00316 µM
[10] = second compound 0.316 µM, first compound 0.01 µM
[11] = second compound 0.316 µM, first compound 0.0316 µM
[12] = second compound 0.316 µM, first compound 0.1 µM
[13] = second compound 1 µM, first compound 0.00316 µM
[14] = second compound 1 µM, first compound 0.01 µM
[15] = second compound 1 µM, first compound 0.0316 µM
[16] = second compound 1 µM, first compound 0.1 µM
[17] = second compound 3.16 µM, first compound 0.00316 µM
[18] = second compound 3.16 µM, first compound 0.01 µM
[19] = second compound 3.16 µM, first compound 0.0316 µM
[20] = second compound 3.16 µM, first compound 0.1 µM
[21] = second compound 10 µM, first compound 0.00316 µM
[22] = second compound 10 µM, first compound 0.01 µM
[23] = second compound 10 µM, first compound 0.0316 µM
[24] = second compound 10 µM, first compound 0.1 µM
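Note: spheroids exposed to compounds for seven days before readout.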

Cn1ncnc1[C@H]1c2n[nH]c(=O)c3cc(F)cc(c23)N[C@@H]1c1ccc(F)cc1 + COC1C(OC(N)=O)C(O)C(Oc2ccc3c(O)c(NC(=O)c4ccc(O)c(CC=C(C)C)c4)c(=O)oc3c2C)OC1(C)C
inactive: viability, T/C (second compound 0.0316 µM, first compound 0.000316 µM) 76.1% | viability, T/C (second compound 0.0316 µM, first compound 0.001 µM) 95.3% | viability, T/C [1] 77.6% | viability, T/C [2] 92.6% | viability, T/C [3] 90.5% | viability, T/C [4] 100% | viability, T/C (second compound 0.1 µM, first compound 0.000316 µM) 106% | viability, T/C (second compound 0.1 µM, first compound 0.001 µM) 88.8% | viability, T/C [5] 102% | viability, T/C [6] 96.2% | viability, T/C [7] 96% | viability, T/C [8] 84.7% | viability, T/C (second compound 0.316 µM, first compound 0.000316 µM) 89.2% | viability, T/C (second compound 0.316 µM, first compound 0.001 µM) 98.7% | viability, T/C [9] 98.9% | viability, T/C [10] 77.8% | viability, T/C [11] 93.1% | viability, T/C [12] 88.4% | viability, T/C (second compound 1 µM, first compound 0.000316 µM) 75.9% | viability, T/C (second compound 1 µM, first compound 0.001 µM) 93.4% | viability, T/C [13] 76.4% | viability, T/C [14] 77.8% | viability, T/C [15] 97.7% | viability, T/C [16] 107% | viability, T/C (second compound 3.16 µM, first compound 0.000316 µM) 78.6% | viability, T/C (second compound 3.16 µM, first compound 0.001 µM) 100% | viability, T/C [17] 95.3% | viability, T/C [18] 92.8% | viability, T/C [19] 87.8% | viability, T/C [20] 77.7% | viability, T/C (second compound 10 µM, first compound 0.000316 µM) 60.5% | viability, T/C (second compound 10 µM, first compound 0.001 µM) 94.8% | viability, T/C [21] 101% | viability, T/C [22] 76.2% | viability, T/C [23] 94% | viability, T/C [24] 103%
> 0.1 µM: IC50 (second compound 0.0316 µM) | IC50 (second compound 0.1 µM) | IC50 (second compound 0.316 µM) | IC50 (second compound 1 µM) | IC50 (second compound 3.16 µM) | IC50 (second compound 10 µM)

C=CCn1c(=O)c2cnc(Nc3ccc(N4CCN(C)CC4)cc3)nc2n1-c1cccc(C(C)(C)O)n1 + Cc1cccc(N(C)C(=O)C2C(O)CCN2c2nc(C)cc(C(F)(F)F)c2C#N)c1
inactive: viability, T/C [1] 103% | viability, T/C [2] 98.2% | viability, T/C [3] 96.8% | viability, T/C [4] 112% | viability, T/C (second compound 0.0316 µM, first compound 0.316 µM) 96.2% | viability, T/C (second compound 0.0316 µM, first compound 1 µM) 79.3% | viability, T/C [5] 99.4% | viability, T/C [6] 98.9% | viability, T/C [7] 88.2% | viability, T/C [8] 84% | viability, T/C (second compound 0.1 µM, first compound 0.316 µM) 99% | viability, T/C (second compound 0.1 µM, first compound 1 µM) 77.7% | viability, T/C [9] 97.8% | viability, T/C [10] 97.2% | viability, T/C [11] 114% | viability, T/C [12] 106% | viability, T/C (second compound 0.316 µM, first compound 0.316 µM) 93% | viability, T/C (second compound 0.316 µM, first compound 1 µM) 68.2% | viability, T/C [13] 92.8% | viability, T/C [14] 91.4% | viability, T/C [15] 108% | viability, T/C [16] 103% | viability, T/C (second compound 1 µM, first compound 0.316 µM) 117% | viability, T/C (second compound 1 µM, first compound 1 µM) 80.9% | viability, T/C [17] 112% | viability, T/C [18] 88.9% | viability, T/C [19] 111% | viability, T/C [20] 89% | viability, T/C (second compound 3.16 µM, first compound 0.316 µM) 94.1% | viability, T/C (second compound 3.16 µM, first compound 1 µM) 77.8% | viability, T/C [21] 82.1% | viability, T/C [22] 111% | viability, T/C [23] 104% | viability, T/C [24] 87% | viability, T/C (second compound 10 µM, first compound 0.316 µM) 101% | viability, T/C (second compound 10 µM, first compound 1 µM) 71%
> 1 µM: IC50 (second compound 0.0316 µM) | IC50 (second compound 0.1 µM) | IC50 (second compound 0.316 µM) | IC50 (second compound 1 µM) | IC50 (second compound 3.16 µM) | IC50 (second compound 10 µM)
